Measured values taken from patent US6287813A, “Antibiotic-based gene regulation system” (Cistronics Cell Technology GmbH, priority 1999, dated 2001).

Molecular target: T1, Pip/PPIR ON (Streptomyces coelicolor, UniProt Q9ADN3)
T1 sequence (Q9ADN3 1-252): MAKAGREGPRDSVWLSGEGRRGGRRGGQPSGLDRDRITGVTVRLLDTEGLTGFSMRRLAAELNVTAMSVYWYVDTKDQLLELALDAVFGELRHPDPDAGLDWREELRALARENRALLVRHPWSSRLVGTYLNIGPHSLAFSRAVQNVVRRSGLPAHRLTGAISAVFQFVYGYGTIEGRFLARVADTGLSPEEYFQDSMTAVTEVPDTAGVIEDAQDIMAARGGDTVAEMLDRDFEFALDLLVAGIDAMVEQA
Format: cell-based
From the text: The Classical PIT/PPIR system belongs to the "OFF" family of regulation concepts since gene expression is activated upon withdrawal of the regulating antibiotic. However, in some applications such as gene therapy and tissue engineering an "ON" system which is induced upon addition of streptogramin antibiotics is more desirable. We therefore constructed a new Pip-based binary PION system which consists of a PPIR ON promoter and a set of two different transrepressors. PPIR ON consists of a PIR3 module containing 3 consecutive Pip binding elements (SEQ ID NO:21; Example 3) placed in front of the strong viral SV40 promoter. Transrepressors such as PIT3, which consists of a protein fusion between Pip and the KRAB silencing domain of the human kox-1 gene (Deuschle et al., 1995, Mol. Cell Biol. 15: 1907-1914) and PIT4, which is simply Pip expressed in a eukaryotic configuration, bind to PIR3 in front of PSV40 and block transcription of this promoter. Besides sterical transcription blocking the silencing domain of PIT3 can additionally downregulate PSV40 activity. […]
Table 9: Comparison of the regulation characteristics of the PipON systems. CHO-K1 cells were simultaneously cotransfected with the plasmids indicated and the SEAP readout (slope a of the p-nitrophenolphosphate-based light absorbance time courses) was determined in the presence and absence of pristinamycin 48 hr post transfection. […]
In order to assess the regulation potential of different streptogramin antibiotics, pMF225 or pMF150 encoding PIT4 were cotransfected with pMF208 (PPIR ON-SEAP) into CHO-K1 cells and the SEAP induction was measured 48 following transfection (as described above in Example 1) and addition of the following streptogramin antibiotics: (i) PI, the group B streptogramin component of pristinamycin; (ii) Pyostacin, the human oral antibiotic; (iii) Synercid, the first injectable semi-synthetic pristinamycin derivative effective against most multidrug resistant human pathogenic bacteria and (iv) virginiamycin used as growth promotant in livestock feed. […]

pristinamycin I [PI] was tested, and the “SEAP readout (slope of the p-nitrophenolphosphate-based light absorbance time courses)” value (+PI (2 μg/ml) column, CHO + pMF208 + pMF225, 48 hr post transfection) was 0.019 ± 0.002, the “SEAP Production (slope of the p-nitrophenolphosphate-based light absorbance time courses)” value (CHO-K1 + pMF225 + pMF208, 2 μg/ml group B component, 48 hr post transfection) was 0.65 ± 0.03 and the Induction factor (PIT4-PPIR ON configuration (pMF225-pMF208)) was 25.
